From ChEMBL document CHEMBL1201862, “PubChem BioAssay data set” (2004)
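Each compound was tested at five concentrations against cells in 96-well plates for 48 hours. Abbreviation: GI50, concentration required for 50% inhibition of growth.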 Active and inactive are the calls of the source. No stated cut-off is given here; in the data, active = GI50 up to about 1.1 µM and inactive = higher.

How the values were obtained:
Assay in all cases: NCI anticancer screen, dose series, 48 h
EKVX = tested on: EKVX
HCC 2998 = tested on: HCC 2998
OVCAR-3 = tested on: OVCAR-3
A549 = tested on: A549
UACC-257 = tested on: UACC-257
IGROV-1 = tested on: IGROV-1
OVCAR-5 = tested on: OVCAR-5
SK-MEL-5 = tested on: SK-MEL-5
OVCAR-8 = tested on: OVCAR-8
CAKI-1 = tested on: CAKI-1
SK-MEL-28 = tested on: SK-MEL-28
LOX IMVI = tested on: LOX IMVI
NCI-H460 = tested on: NCI-H460
BT-549 = tested on: BT-549
SNB-19 = tested on: SNB-19
OVCAR-4 = tested on: OVCAR-4
T47D = tested on: T47D
HL-60 = tested on: HL-60
COLO 205 = tested on: COLO 205
KM12 = tested on: KM12
MDA-MB-435 = tested on: MDA-MB-435
SF-539 = tested on: SF-539
NCI/ADR-RES = tested on: NCI/ADR-RES
MOLT-4 = tested on: MOLT-4
SK-MEL-2 = tested on: SK-MEL-2
MDA-MB-231 = tested on: MDA-MB-231
HT-29 = tested on: HT-29
M14 = tested on: M14
DU-145 = tested on: DU-145
U-251 = tested on: U-251
HCT-15 = tested on: HCT-15
MDA-N = tested on: MDA-N
HCT-116 = tested on: HCT-116
MCF7 = tested on: MCF7
HOP-62 = tested on: HOP-62
TK-10 = tested on: TK-10
NCI-H23 = tested on: NCI-H23
ACHN = tested on: ACHN
786-0 = tested on: 786-0
SNB-75 = tested on: SNB-75
HOP-92 = tested on: HOP-92
SW-620 = tested on: SW-620
SN12C = tested on: SN12C
SF-295 = tested on: SF-295
NCI-H226 = tested on: NCI-H226
SK-OV-3 = tested on: SK-OV-3
UO-31 = tested on: UO-31
PC-3 = tested on: PC-3
K562 = tested on: K562
SR = tested on: SR
UACC-62 = tested on: UACC-62
CCRF-CEM = tested on: CCRF-CEM
RXF 393 = tested on: RXF 393
SF-268 = tested on: SF-268
Malme-3M = tested on: Malme-3M
NCI-H522 = tested on: NCI-H522
Hs-578T = tested on: Hs-578T
A498 = tested on: A498
RPMI-8226 = tested on: RPMI-8226

## CC1=CC(=O)C(=CN2C(=O)/C(=C\c3cccnc3)NC2=S)C(=O)O1
EKVX
  GI50: > 100 µM (inactive)
HCC 2998
  GI50: > 100 µM (inactive)
OVCAR-3
  GI50: > 100 µM (inactive)
A549
  GI50: > 100 µM (inactive)
UACC-257
  GI50: > 100 µM (inactive)
IGROV-1
  GI50: > 100 µM (inactive)
OVCAR-5
  GI50: > 100 µM (inactive)
SK-MEL-5
  GI50: > 100 µM (inactive)
OVCAR-8
  GI50: > 100 µM (inactive)
CAKI-1
  GI50: > 100 µM (inactive)
SK-MEL-28
  GI50: > 100 µM (inactive)
LOX IMVI
  GI50: > 100 µM (inactive)
NCI-H460
  GI50: > 100 µM (inactive)
BT-549
  GI50: > 100 µM (inactive)
SNB-19
  GI50: > 100 µM (inactive)
OVCAR-4
  GI50: > 100 µM (inactive)
T47D
  GI50: > 100 µM (inactive)
HL-60
  GI50: 54.3 µM (inactive)
COLO 205
  GI50: > 100 µM (inactive)
KM12
  GI50: > 100 µM (inactive)
MDA-MB-435
  GI50: > 100 µM (inactive)
SF-539
  GI50: > 100 µM (inactive)
NCI/ADR-RES
  GI50: > 100 µM (inactive)
MOLT-4
  GI50: > 100 µM (inactive)
SK-MEL-2
  GI50: > 100 µM (inactive)
MDA-MB-231
  GI50: > 100 µM (inactive)
HT-29
  GI50: > 100 µM (inactive)
M14
  GI50: > 100 µM (inactive)
DU-145
  GI50: > 100 µM (inactive)
U-251
  GI50: > 100 µM (inactive)
HCT-15
  GI50: > 100 µM
MDA-N
  GI50: > 100 µM (inactive)
HCT-116
  GI50: > 100 µM (inactive)
MCF7
  GI50: > 100 µM (inactive)
HOP-62
  GI50: > 100 µM (inactive)
TK-10
  GI50: > 100 µM (inactive)
NCI-H23
  GI50: > 100 µM (inactive)
ACHN
  GI50: > 100 µM (inactive)
786-0
  GI50: > 100 µM (inactive)
SNB-75
  GI50: > 100 µM (inactive)
HOP-92
  GI50: > 100 µM (inactive)
SW-620
  GI50: > 100 µM (inactive)
SN12C
  GI50: > 100 µM (inactive)
SF-295
  GI50: > 100 µM (inactive)
NCI-H226
  GI50: > 100 µM (inactive)
SK-OV-3
  GI50: > 100 µM (inactive)
UO-31
  GI50: > 100 µM (inactive)
PC-3
  GI50: > 100 µM (inactive)

## Oc1ccc(C(O)(c2ccccc2)c2ccccc2)c2ccccc12
EKVX
  GI50: 10.4 µM (inactive)
K562
  GI50: 3.13 µM (inactive)
OVCAR-3
  GI50: 1.42 µM (inactive)
A549
  GI50: 3.27 µM (inactive)
UACC-257
  GI50: 6.85 µM (inactive)
SR
  GI50: 2.5 µM (inactive)
IGROV-1
  GI50: 1.87 µM (inactive)
OVCAR-5
  GI50: 2.3 µM (inactive)
SK-MEL-5
  GI50: 2.67 µM (inactive)
OVCAR-8
  GI50: 2.42 µM (inactive)
CAKI-1
  GI50: 1.82 µM (inactive)
SK-MEL-28
  GI50: 15 µM (inactive)
LOX IMVI
  GI50: 1.25 µM (inactive)
NCI-H460
  GI50: 2.72 µM (inactive)
UACC-62
  GI50: 1.22 µM (inactive)
CCRF-CEM
  GI50: 0.019 µM (active)
RXF 393
  GI50: 3.75 µM (inactive)
BT-549
  GI50: 3.85 µM (inactive)
SNB-19
  GI50: 5.15 µM (inactive)
OVCAR-4
  GI50: 5.75 µM (inactive)
T47D
  GI50: 2.77 µM (inactive)
HL-60
  GI50: 2.93 µM (inactive)
COLO 205
  GI50: 3.44 µM (inactive)
SF-268
  GI50: 2.4 µM (inactive)
KM12
  GI50: 2.07 µM (inactive)
MDA-MB-435
  GI50: 1.07 µM (active)
SF-539
  GI50: 2 µM (inactive)
NCI/ADR-RES
  GI50: 2.1 µM (inactive)
MOLT-4
  GI50: 3.14 µM (inactive)
SK-MEL-2
  GI50: 2.4 µM (inactive)
MDA-MB-231
  GI50: 1.79 µM (inactive)
HT-29
  GI50: 2.77 µM (inactive)
M14
  GI50: 2.34 µM (inactive)
DU-145
  GI50: 2.13 µM (inactive)
U-251
  GI50: 1.45 µM (inactive)
HCT-15
  GI50: 1.22 µM
Malme-3M
  GI50: 10.2 µM (inactive)
HCT-116
  GI50: 2.1 µM (inactive)
MCF7
  GI50: 4.15 µM (inactive)
HOP-62
  GI50: 2.3 µM (inactive)
TK-10
  GI50: 2.59 µM (inactive)
NCI-H23
  GI50: 2.79 µM (inactive)
ACHN
  GI50: 1.77 µM (inactive)
786-0
  GI50: 2.02 µM (inactive)
SNB-75
  GI50: 4.53 µM (inactive)
HOP-92
  GI50: < 0.01 µM (active)
SW-620
  GI50: 2.64 µM (inactive)
SN12C
  GI50: 2.22 µM (inactive)
SF-295
  GI50: 2.9 µM (inactive)
NCI-H522
  GI50: 2.42 µM (inactive)
NCI-H226
  GI50: 2.52 µM (inactive)
Hs-578T
  GI50: 3.88 µM (inactive)
SK-OV-3
  GI50: 3.25 µM (inactive)
UO-31
  GI50: 2.97 µM (inactive)
PC-3
  GI50: 2.25 µM (inactive)

## O=c1[nH]c2ccc(CC(=S)N3CCCCC3)cc2s1
EKVX
  GI50: 0.214 µM (active)
K562
  GI50: > 100 µM (inactive)
OVCAR-3
  GI50: > 100 µM (inactive)
UACC-257
  GI50: > 100 µM (inactive)
SR
  GI50: 26.4 µM (inactive)
OVCAR-5
  GI50: > 100 µM (inactive)
OVCAR-8
  GI50: > 100 µM (inactive)
CAKI-1
  GI50: 91.6 µM (inactive)
SK-MEL-28
  GI50: > 100 µM (inactive)
LOX IMVI
  GI50: > 100 µM (inactive)
UACC-62
  GI50: > 100 µM (inactive)
BT-549
  GI50: > 100 µM (inactive)
SNB-19
  GI50: > 100 µM (inactive)
COLO 205
  GI50: > 100 µM (inactive)
KM12
  GI50: > 100 µM (inactive)
MDA-MB-435
  GI50: > 100 µM (inactive)
MOLT-4
  GI50: > 100 µM (inactive)
SK-MEL-2
  GI50: > 100 µM (inactive)
MDA-MB-231
  GI50: > 100 µM (inactive)
M14
  GI50: > 100 µM (inactive)
DU-145
  GI50: > 100 µM (inactive)
HCT-15
  GI50: > 100 µM
MDA-N
  GI50: > 100 µM (inactive)
HCT-116
  GI50: > 100 µM (inactive)
MCF7
  GI50: > 100 µM (inactive)
HOP-62
  GI50: 71.9 µM (inactive)
TK-10
  GI50: > 100 µM (inactive)
NCI-H23
  GI50: > 100 µM (inactive)
ACHN
  GI50: > 100 µM (inactive)
786-0
  GI50: > 100 µM (inactive)
SNB-75
  GI50: 0.163 µM (active)
SW-620
  GI50: > 100 µM (inactive)
SF-295
  GI50: > 100 µM (inactive)
SK-OV-3
  GI50: > 100 µM (inactive)
PC-3
  GI50: > 100 µM (inactive)

## Cc1cc2c(cc1Cl)SC(NNC(=O)c1ccccc1)=NS2(=O)=O
EKVX
  GI50: > 10 µM (inactive)
HCC 2998
  GI50: > 10 µM (inactive)
K562
  GI50: > 10 µM (inactive)
OVCAR-3
  GI50: > 10 µM (inactive)
A549
  GI50: > 10 µM (inactive)
UACC-257
  GI50: > 10 µM (inactive)
IGROV-1
  GI50: > 10 µM (inactive)
OVCAR-5
  GI50: > 10 µM (inactive)
SK-MEL-5
  GI50: > 10 µM (inactive)
OVCAR-8
  GI50: > 10 µM (inactive)
CAKI-1
  GI50: > 10 µM (inactive)
SK-MEL-28
  GI50: > 10 µM (inactive)
LOX IMVI
  GI50: > 10 µM (inactive)
NCI-H460
  GI50: > 10 µM (inactive)
UACC-62
  GI50: > 10 µM (inactive)
CCRF-CEM
  GI50: > 10 µM (inactive)
A498
  GI50: > 10 µM (inactive)
RPMI-8226
  GI50: > 10 µM (inactive)
RXF 393
  GI50: > 10 µM (inactive)
BT-549
  GI50: > 10 µM (inactive)
SNB-19
  GI50: > 10 µM (inactive)
OVCAR-4
  GI50: > 10 µM (inactive)
T47D
  GI50: > 10 µM (inactive)
HL-60
  GI50: > 10 µM (inactive)
COLO 205
  GI50: > 10 µM (inactive)
SF-268
  GI50: > 10 µM (inactive)
KM12
  GI50: > 10 µM (inactive)
MDA-MB-435
  GI50: > 10 µM (inactive)
SF-539
  GI50: > 10 µM (inactive)
NCI/ADR-RES
  GI50: > 10 µM (inactive)
MOLT-4
  GI50: > 10 µM (inactive)
SK-MEL-2
  GI50: > 10 µM (inactive)
MDA-MB-231
  GI50: > 10 µM (inactive)
HT-29
  GI50: > 10 µM (inactive)
M14
  GI50: > 10 µM (inactive)
DU-145
  GI50: > 10 µM (inactive)
U-251
  GI50: > 10 µM (inactive)
HCT-15
  GI50: > 10 µM
Malme-3M
  GI50: > 10 µM (inactive)
HCT-116
  GI50: > 10 µM (inactive)
MCF7
  GI50: 2.21 µM (inactive)
HOP-62
  GI50: > 10 µM (inactive)
TK-10
  GI50: > 10 µM (inactive)
NCI-H23
  GI50: > 10 µM (inactive)
ACHN
  GI50: > 10 µM (inactive)
786-0
  GI50: > 10 µM (inactive)
SNB-75
  GI50: > 10 µM (inactive)
SW-620
  GI50: > 10 µM (inactive)
SN12C
  GI50: > 10 µM (inactive)
SF-295
  GI50: > 10 µM (inactive)
NCI-H522
  GI50: > 10 µM (inactive)
NCI-H226
  GI50: > 10 µM (inactive)
Hs-578T
  GI50: > 10 µM (inactive)
SK-OV-3
  GI50: > 10 µM (inactive)
PC-3
  GI50: > 10 µM (inactive)
